Experimental data as given in patent publication US20140288010A1, “Compositions and Methods for Increasing Stem Cell Survival” (Georgia Regents Research Institute, Inc., priority 2013, published 2014).

Experiments:
[1] = tested on: 18 month MSCs; assay: Transwell migration of 18 month MSCs; assay type: cell-based, mouse; conditions: 6 hours treatment
Source text: The data shown are averages of quadruplicate wells. Bar graph represents RFU of migrated cells normalized to vehicle control group +/−SEM. *p<0.05 verse control group.
(§1) Low passage MSCs from 18 and 24 month old adult male C57BL/6 mice, procured from the GHSU Institute of Regenerative and Reparative Medicine Stem Cell Core (IRRM-SSC) were used. This age range was chosen based on associated changes in bone formation and mass in the comparatively aged mice (Zhang, et al., Journal of Bone and Mineral Research, 23:1118-1128 (2008)).
(§2) Recombinant active SDF-1β (i.e. full length amino acids 1-72; 100 ng/mL; Peprotech), Recombinant Mouse DPPIV/CD26 enzyme (0.01 μg; R&D) cleaved (Cl.) SDF-1β (aa3-72; 100 ng/mL) (Christopherson, et al., Blood, 101:4680-4686 (2003)), and AMD3100 (400 μM; R&D), an antagonist of SDF-1/CXCR4 axis (Liu, et al., Protein & Cell, 2:845-854 (2011)).
The migration efficiency of 18 month MSCs in response to SDF-1β, its cleaved form and AMD3100, as a positive control, was tested using a transwell migration system.

[2] = biological target: CXCR4 (Mus musculus, UniProt P70658); conditions: BM supernatant of 3 or 18 month old mice normalized to 150 pg/ml SDF-1; both age groups
Procedure: BM supernatant from 3 or 18 month old mice were normalized by dilution with saline to yield 150 pg/ml of SDF-1 as determined by ELISA. The normalized BM supernatant was added to the lower chamber and the cells (either pretreated with AMD3100 or not) were permitted to migrate for 6 hours.

[3] = tested on: Smad1/5/8-mediated BMP-2 signal transduction; assay: BMP receptor signaling by Western blot ((p)Erk1/2, (p)Smad1/5/8) in BMSCs; assay type: cell-based, mouse; conditions: for effect of pretreatment on SDF-1β potentiation of BMP-2 signal transduction: pretreatment 4 h, 600 μM AMD3100 or 50 μM U0126, before 300 ng/ml BMP-2
Source text: FIGS. 17A and 17D are images of autoradiograms of western blots detecting pErk 1/2, Erk1/2, pSmad 1/5/8, Smad 1/5/8, and beta-actin (loading control) of isolated BMSC cells: Tet-Off-SDF-1β with and without Dox, BMP2, AMD3100, U0126, and combinations thereof (FIG. 17A) and Tet-Off-EV controls with and without Dox, BMP2, AMD3100, U0126, and combinations thereof (FIG. 17D). FIGS. 17B-C and 17E-F are bar graphs showing densitometry quantification of immunoreactive bands of FIGS. 17A and 17D as a ratio of pErk 1/2 to Erk1/2 (17B and 17E) and pSmad 1/5/8 to Smad 1/5/8 (17C and 17F).
(§3) BMP receptor signaling was assessed by Western blot. Serum-starved BMSCs were pretreated with 600 μM AMD3100, 50 μM U0126, or vehicle for 4 h prior to stimulation with 300 ng/ml BMP-2 for 30 min. Whole cell lysates were subjected to SDS-PAGE, electroblotted onto PVDF membranes, and probed for (p)Erk1/2 and (p)Smad1/5/8. Transwell migration assays were performed using conditioned media from genetically engineered BMSCs in lower chambers. Serum-starved Jurkat cells or BMSCs at 5.0-8.0×10^5 cells/ml in upper chambers were allowed to migrate across the 8-μm membranes for 4-8 h prior to quantifying total DNA with CyQuant GR dye at 485/535 nm. Apoptosis was induced with 1.0 mM H2O2 for 6 h. Cell death was quantified by trypan blue staining and Western blot analysis of cleaved caspase-3 and PARP. Autophagy was evaluated by Western blot for LC3-II.

[4] = tested on: 18 month MSCs; assay: Osteogenic differentiation of MSCs, Alizarin red staining for calcium deposition; assay type: cell-based, mouse; conditions: for increase of Alizarin red staining for calcium compared to control cells: osteogenic differentiation of MSCs, terminal stages
Source text: as §1
To determine the influence of modulating SDF-1 signaling in osteogenic differentiation of 18 month MSCs, the calcium deposition at the terminal stages of differentiation was measured. […] However, the SDF-1β stimulated calcium-staining was reduced by ˜8 fold (FIG. 9B) with co-treatment with C1.SDF-10.

[5] = tested on: SDF-1; assay: qRTPCR of SDF1β, CXCR4 and LC3B mRNA in MSCs after metformin treatment; assay type: cell-based, mouse; conditions: MSCs treated with metformin compared to controls
[6] = tested on: LC3B, p62, pERK; assay: Western blot of LC3B, p62 and pERK in aged MSCs (autophagy and MAPK pathway); assay type: cell-based, mouse
Source text: Low passage MSCs from 18 and 24 month old adult male C57BL/6 mice, procured from the GHSU Institute of Regenerative and Reparative Medicine Stem Cell Core (IRRM-SSC) were used.
Redistribution of LC3B from cytosol (18 kDa) to an autophagosome (16 kDa) is an indication of autophagy induction. P62, also known as sequestosome 1/SQSTM1, is a ubiquitously expressed protein, best characterized for selective autophagy, directly interacts with LC3B on the phagophore through the LC3-interacting region and then degraded.

[7] = tested on: BMSCs; assay: Cell viability after H2O2 treatment by trypan blue exclusion staining; assay type: cell-based, mouse; conditions: 1.0 mM H2O2 for 6 h; p<0.001
Source text: BMSCs were transduced with retroviral Tet-Off expression vectors. The sequential protocol of retrovirus production, two-step infection, and selection to generate double-stable Tet-Off-SDF-1β BMSCs and Tet-Off-EV control BMSCs has been described previously (Herberg, et al., Tissue Eng Part A, 19:1-13 (2013)). In brief, 293GPG packaging cells (Ory, et al., Proc. Natl. Acad. Sci. USA, 93:11400-11406 (1996)) were transfected at passage 8 with retroviral Tet-Off expression vectors containing the SDF-1β coding sequence, or empty control (cat#632105) (Clontech Laboratories, Mountain View, Calif., USA). […]
The viability of BMSCs in response to H2O2 treatment was analyzed using standard trypan blue exclusion staining Cells were washed with PBS, lifted with trypsin/EDTA, and resuspended with normal growth medium. Following 1:5 dilution, BMSC suspensions were mixed with an equal volume of 0.4% trypan blue staining solution (cat#15250061) (Gibco, Invitrogen), and counted in 5 inner squares using a hemacytometer with cover slip (Hausser Scientific, Horsham, Pa., USA).
BMP receptor signaling was assessed by Western blot. […] Serum-starved Jurkat cells or BMSCs at 5.0-8.0×10^5 cells/ml in upper chambers were allowed to migrate across the 8-μm membranes for 4-8 h prior to quantifying total DNA with CyQuant GR dye at 485/535 nm. […] Autophagy was evaluated by Western blot for LC3-II.

[8] = tested on: CXCR4-expressing Jurkat cells; assay: Transwell migration toward conditioned media from genetically engineered BMSCs, Jurkat cells; assay type: cell-based; conditions: 4-8 h, p<0.01
Procedure: as §3

[9] = tested on: BMSCs; assay: Transwell migration toward conditioned media from genetically engineered BMSCs, BMSCs; assay type: cell-based, mouse; conditions: 4-8 h, p<0.01
Procedure: as §3

[10] = tested on: AMPK-α1 and LC3B; assay: qRTPCR of AMPK-α1 and LC3B mRNA in MSCs; assay type: cell-based, mouse; conditions: 24 month MSCs; 100 ng/ml for 48 hours
Procedure: FIG. 7 is bar graph showing the results of an assay measuring the level of AMPK-alpha1 and LC3B mRNA in 24 month MSCs control cells and cells treated with 100 ng/ml of active SDF-1β for 48 hours. *p<0.05 compared to control group.
as §1, §2

Chain of CXCR4 (P70658 whole entry): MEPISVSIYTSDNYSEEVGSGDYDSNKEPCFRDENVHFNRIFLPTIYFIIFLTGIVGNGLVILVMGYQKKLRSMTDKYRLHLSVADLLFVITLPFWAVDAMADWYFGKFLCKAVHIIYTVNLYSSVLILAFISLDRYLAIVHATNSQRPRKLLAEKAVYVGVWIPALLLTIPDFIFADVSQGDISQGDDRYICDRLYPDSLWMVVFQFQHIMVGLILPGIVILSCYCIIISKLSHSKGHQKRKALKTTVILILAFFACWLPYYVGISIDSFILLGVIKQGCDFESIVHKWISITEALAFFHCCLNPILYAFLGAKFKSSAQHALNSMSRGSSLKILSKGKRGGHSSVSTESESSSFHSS

c1cc(CN2CCCNCCNCCCNCC2)ccc1CN1CCCNCCNCCCNCC1 [AMD3100]
migration of MSCs in transwell migration system relative to control [1]: suppressed | migration of MSCs toward BM supernatant after pretreatment of the cells [2]: blocked all migration | effect of pretreatment on SDF-1β potentiation of BMP-2 signal transduction [3]: abolished

c1cc(-c2cnn3cc(-c4ccc(OCCN5CCCCC5)cc4)cnc23)ccn1 [Compound C]
osteogenic differentiation of MSCs (Alizarin red staining) [4]: significantly reduced

N#CC(=C(/N)Sc1ccccc1N)/C(C#N)=C(\N)Sc1ccccc1N [U0126]
effect of pretreatment on SDF-1β potentiation of BMP-2 signal transduction [3]: abolished

CN(C)C(=N)N=C(N)N [metformin]
expression of endogenous SDF-1 [5]: increase expression of endogenous SDF-1 | increase of Alizarin red staining for calcium compared to control cells [4]: ~20 fold | LC3B and p62 levels on further incubation ([6]; 18 month and 24 month old MSCs, 24 or 48 h of metformin treatment): gradual reduction of LC3B and p62

SDF-1β: Recombinant active SDF-1β, full length amino acids 1-72 (Peprotech); in Example 9 overexpressed in engineered BMSCs
apoptosis-resistance in genetically engineered BMSCs [7]: significant apoptosis-resistance | migratory response of CXCR4-expressing Jurkat cells [8]: significantly promoted | migratory response of BMSCs [9]: significantly promoted | migration of MSCs in transwell migration system relative to control [1]: strong migrating potential | AMPK-α1 and LC3B mRNA (qRTPCR) [10]: regulated autophagy at transcriptional level | increase of Alizarin red staining for calcium compared to control cells [4]: ~20 fold | LC3B and p62 levels on further incubation ([6]; 18 month MSCs, 24 or 48 h, 100 ng/mL): gradual disappearance of LC3B and p62 | effect on MAPK pathway and autophagy (LC3B distribution) ([6]; 18 month MSCs, six hours of treatment, 100 ng/mL): led to MAPK pathway activation and induced autophagy by distributing LC3B | Smad1/5/8-mediated BMP-2 signal transduction via Erk1/2 phosphorylation ([3]; SDF-1β overexpressed in genetically engineered BMSCs, 300 ng/ml BMP-2 for 30 min, p<0.05): significantly potentiated
